According to patent US20220273659A1, “HETEROCYCLIC COMPOUNDS AS KINASE INHIBITORS” (NUVATION BIO INC., priority 2019, published 2022):
Where two headings read alike, the source gives them in different places.

Columns and labels:
CDK4 = target: T1, CDK4 (Homo sapiens, UniProt P11802); test: In vitro kinase inhibition IC50, luminescence (ADP Glo), retinoblastoma substrate; assay type: biochemical; conditions: read-out: CDK4/D1 IC50
T1 construct: purchased Invitrogen PR8064A
Procedure, shortened: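 CDK4 enzyme (5 nM, Invitrogen) was combined with test compound and a mix of retinoblastoma substrate (1 μM) plus ATP (25 μM) in kinase buffer, 30 μL/well in 96-well half area white plates. After 2H at room temperature, ADP Glo reagent stopped the reaction for 45 min, then detection reagent was added and luminescence was read.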

CDK6 = target: T2, CDK6 (Homo sapiens, UniProt Q00534); test: as above; assay type: biochemical; conditions: read-out: CDK6/D1 IC50
T2 construct: purchased Invitrogen PR8422B
T2 sequence (Q00534 whole entry): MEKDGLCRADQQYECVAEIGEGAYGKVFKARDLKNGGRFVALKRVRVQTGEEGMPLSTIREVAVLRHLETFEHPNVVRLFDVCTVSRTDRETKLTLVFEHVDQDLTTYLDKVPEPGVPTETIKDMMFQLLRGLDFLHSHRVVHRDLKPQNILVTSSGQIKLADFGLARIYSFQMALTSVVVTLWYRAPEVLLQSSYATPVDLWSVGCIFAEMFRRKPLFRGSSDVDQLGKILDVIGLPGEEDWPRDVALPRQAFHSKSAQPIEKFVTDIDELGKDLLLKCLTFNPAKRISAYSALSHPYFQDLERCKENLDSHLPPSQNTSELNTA
T2 sequence (P24385 whole entry partner): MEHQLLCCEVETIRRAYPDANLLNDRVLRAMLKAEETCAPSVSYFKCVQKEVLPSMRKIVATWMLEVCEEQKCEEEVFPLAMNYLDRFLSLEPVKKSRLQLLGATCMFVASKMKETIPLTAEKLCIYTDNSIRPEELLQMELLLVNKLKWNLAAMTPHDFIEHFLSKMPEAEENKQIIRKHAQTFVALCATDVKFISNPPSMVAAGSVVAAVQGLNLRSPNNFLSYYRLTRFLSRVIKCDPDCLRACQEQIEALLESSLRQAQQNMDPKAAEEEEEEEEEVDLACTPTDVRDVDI
Procedure, shortened: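 Recombinant CDK6 (5 nM) with retinoblastoma substrate (1 μM) and 25 μM ATP, compound at final 0.1–200 nM, incubated 2 h at room temperature. ADP formed detected by ADP-Glo luminescence. IC50 from four-parameter logistic fit of percent inhibition.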

CDK1 (cyclin B) = target: T3, CDK1 (cyclin B) (Homo sapiens, UniProt P06493); test: Z'-LYTE kinase assay; assay type: biochemical
T3 construct: purchased Invitrogen Life Technologies (assay service)
T3 sequence (P06493 whole entry): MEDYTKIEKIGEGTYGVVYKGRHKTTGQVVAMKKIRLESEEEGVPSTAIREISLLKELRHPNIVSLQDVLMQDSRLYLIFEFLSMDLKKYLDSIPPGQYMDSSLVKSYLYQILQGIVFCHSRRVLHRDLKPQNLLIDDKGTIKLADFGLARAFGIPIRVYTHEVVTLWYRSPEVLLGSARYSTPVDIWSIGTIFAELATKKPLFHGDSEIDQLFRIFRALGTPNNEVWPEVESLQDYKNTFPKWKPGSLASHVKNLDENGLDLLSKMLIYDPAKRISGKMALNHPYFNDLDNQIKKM
T3 sequence (P14635 whole entry partner): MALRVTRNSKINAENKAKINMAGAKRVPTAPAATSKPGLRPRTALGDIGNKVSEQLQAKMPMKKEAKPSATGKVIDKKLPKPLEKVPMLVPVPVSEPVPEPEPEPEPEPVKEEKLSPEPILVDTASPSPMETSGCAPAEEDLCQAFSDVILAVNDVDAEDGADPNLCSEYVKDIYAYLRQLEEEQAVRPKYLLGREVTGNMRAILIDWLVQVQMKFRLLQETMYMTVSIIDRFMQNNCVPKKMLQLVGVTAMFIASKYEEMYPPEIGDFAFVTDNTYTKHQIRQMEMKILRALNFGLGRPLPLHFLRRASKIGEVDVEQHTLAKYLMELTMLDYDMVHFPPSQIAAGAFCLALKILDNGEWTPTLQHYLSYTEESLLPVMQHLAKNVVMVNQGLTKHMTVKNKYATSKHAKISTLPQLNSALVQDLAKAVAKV
Protocol: The plates were shaken for 30 seconds, and incubated for 60 minutes at room temperature. […] The plates were read on fluorescence plate reader with Dual emission at 445 nm and 520 nm.
The following equations were used for Z′-LYTE™ Screening Assay Data Analysis.

CDK2 (cyclin A) = target: T4, CDK2 (cyclin A) (Homo sapiens, UniProt P24941); test: Z'-LYTE kinase assay; assay type: biochemical
T4 construct: purchased Invitrogen Life Technologies (assay service)
Procedure, shortened: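 FRET-based Z′-LYTE read-out using 1.22–10.3 ng CDK2/cyclin A with Ser/Thr 12 peptide (2 μM in the 2× mix) and ATP (31 μM as the 4× solution), in HEPES pH 7.5, MgCl2, EGTA and BRIJ-35, for 60 min at room temperature. After 1 h of development, the 445/520 nm emission was read, and percent inhibition was fitted to a four-parameter logistic curve for IC50.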

FMS kinase = target: T5, FMS kinase (Homo sapiens, UniProt P07333); test: LanthaScreen Eu Kinase Binding Assay (ATP, fluorescent-PolyGT substrate); assay type: biochemical
T5 construct: purchased Invitrogen (Life Technologies)
T5 sequence (P07333 20-972): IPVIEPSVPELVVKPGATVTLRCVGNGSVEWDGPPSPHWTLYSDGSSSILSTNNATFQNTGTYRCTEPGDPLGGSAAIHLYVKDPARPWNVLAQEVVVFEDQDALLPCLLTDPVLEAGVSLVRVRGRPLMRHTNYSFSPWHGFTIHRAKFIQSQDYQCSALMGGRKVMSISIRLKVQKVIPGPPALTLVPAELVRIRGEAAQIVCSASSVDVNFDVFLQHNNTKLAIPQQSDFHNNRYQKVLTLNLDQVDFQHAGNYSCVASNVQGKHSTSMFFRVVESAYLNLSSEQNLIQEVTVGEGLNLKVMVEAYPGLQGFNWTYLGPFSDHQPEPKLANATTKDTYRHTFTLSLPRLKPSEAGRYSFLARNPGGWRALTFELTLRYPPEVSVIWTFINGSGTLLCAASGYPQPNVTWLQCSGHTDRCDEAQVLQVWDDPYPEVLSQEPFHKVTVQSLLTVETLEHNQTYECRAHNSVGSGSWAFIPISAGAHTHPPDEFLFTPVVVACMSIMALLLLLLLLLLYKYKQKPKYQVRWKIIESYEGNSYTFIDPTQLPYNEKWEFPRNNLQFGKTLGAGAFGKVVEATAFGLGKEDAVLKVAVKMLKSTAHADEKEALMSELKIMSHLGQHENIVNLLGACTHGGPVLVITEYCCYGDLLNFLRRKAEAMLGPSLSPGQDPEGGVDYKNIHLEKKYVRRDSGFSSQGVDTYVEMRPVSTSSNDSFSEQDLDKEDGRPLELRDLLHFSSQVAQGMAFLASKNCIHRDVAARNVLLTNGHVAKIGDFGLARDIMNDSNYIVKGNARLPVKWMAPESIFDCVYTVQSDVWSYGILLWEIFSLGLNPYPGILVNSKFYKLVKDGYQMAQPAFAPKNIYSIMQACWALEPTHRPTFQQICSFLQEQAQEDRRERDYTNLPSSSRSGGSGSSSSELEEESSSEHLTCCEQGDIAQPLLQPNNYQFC
Procedure, shortened: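 Kinase (1.25 nM) preincubated 10 min with 3-fold compound dilutions, then ATP 10 μM and fluorescent PolyGT substrate 200 nM added for 1 h in the dark at room temperature. Stopped with Tb-antibody (4 nM) and EDTA 20 mM; TR-FRET at 340 nm excitation, 495/520 nm emission; IC50 from four-parameter fit.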

PI3Kδ kinase = target: T6, PI3Kδ kinase (Homo sapiens, UniProt O00329); test: PI3Kδ kinase assay (ADP-Glo, Reaction Biology); assay type: biochemical
T6 construct: purchased Reaction Biology Corporation (assay service)
T6 sequence (O00329 whole entry): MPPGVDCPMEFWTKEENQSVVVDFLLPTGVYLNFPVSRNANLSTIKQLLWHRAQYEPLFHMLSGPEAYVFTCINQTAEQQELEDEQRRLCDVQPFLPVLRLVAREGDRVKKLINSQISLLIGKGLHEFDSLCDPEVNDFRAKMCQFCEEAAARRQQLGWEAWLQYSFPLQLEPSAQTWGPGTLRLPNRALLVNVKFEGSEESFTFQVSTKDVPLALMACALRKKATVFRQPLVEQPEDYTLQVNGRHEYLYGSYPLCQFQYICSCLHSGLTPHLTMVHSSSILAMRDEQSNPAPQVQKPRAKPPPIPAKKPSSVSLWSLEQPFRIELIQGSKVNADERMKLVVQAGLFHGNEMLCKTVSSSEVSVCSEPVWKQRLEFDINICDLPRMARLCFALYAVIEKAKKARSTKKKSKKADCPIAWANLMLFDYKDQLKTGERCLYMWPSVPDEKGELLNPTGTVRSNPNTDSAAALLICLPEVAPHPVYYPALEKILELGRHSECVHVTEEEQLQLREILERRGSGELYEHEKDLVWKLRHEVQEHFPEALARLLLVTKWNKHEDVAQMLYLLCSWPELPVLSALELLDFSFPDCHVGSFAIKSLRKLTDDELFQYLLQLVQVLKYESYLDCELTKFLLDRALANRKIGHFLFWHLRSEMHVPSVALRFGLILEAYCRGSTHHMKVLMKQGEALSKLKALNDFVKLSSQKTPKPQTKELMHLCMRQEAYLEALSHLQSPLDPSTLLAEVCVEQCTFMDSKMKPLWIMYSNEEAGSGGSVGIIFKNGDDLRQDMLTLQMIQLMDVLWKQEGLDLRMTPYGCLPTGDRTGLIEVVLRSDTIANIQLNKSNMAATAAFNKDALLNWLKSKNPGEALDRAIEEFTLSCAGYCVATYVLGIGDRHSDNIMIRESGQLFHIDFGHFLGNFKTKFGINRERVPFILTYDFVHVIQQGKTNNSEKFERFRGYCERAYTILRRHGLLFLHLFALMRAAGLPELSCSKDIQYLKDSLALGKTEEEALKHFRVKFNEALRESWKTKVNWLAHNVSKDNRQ
T6 sequence (P27986 whole entry partner): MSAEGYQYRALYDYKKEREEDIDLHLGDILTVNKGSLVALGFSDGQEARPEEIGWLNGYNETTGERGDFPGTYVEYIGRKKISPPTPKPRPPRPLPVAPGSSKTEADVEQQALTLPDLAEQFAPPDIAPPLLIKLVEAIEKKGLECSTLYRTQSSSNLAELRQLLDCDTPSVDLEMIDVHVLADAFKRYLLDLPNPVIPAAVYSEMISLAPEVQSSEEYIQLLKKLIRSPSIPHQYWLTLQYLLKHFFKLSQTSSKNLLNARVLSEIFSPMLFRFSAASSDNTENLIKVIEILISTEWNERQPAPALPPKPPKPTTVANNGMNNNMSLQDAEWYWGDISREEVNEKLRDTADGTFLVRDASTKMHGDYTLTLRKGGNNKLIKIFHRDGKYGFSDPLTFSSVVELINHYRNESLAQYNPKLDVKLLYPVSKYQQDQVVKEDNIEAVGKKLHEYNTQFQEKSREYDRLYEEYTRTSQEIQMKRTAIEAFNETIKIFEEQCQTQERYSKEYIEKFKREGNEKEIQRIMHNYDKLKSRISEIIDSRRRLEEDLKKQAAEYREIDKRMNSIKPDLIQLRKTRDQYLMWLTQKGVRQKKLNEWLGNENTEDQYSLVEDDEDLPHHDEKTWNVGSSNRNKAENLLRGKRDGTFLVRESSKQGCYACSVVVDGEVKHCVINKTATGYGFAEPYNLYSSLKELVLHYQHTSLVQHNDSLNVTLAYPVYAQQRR
Procedure, shortened: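 Kinase in Tris-HCl 40 mM pH 7.5, MgCl2 20 mM, orthovanadate 3 mM, DTT 2 mM, 0.05% CHAPS, 1% DMSO, preincubated 10 min at room temperature with compound (about 0.5 nM–100 μM). ATP started a 30-min reaction at 30 °C. ADP-Glo luminescence converted to μM ADP via standard curve; IC50 from nonlinear regression.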

[1] = system: DU4475 breast carcinoma cells; test: Cancer cell proliferation assay, single agent (cell viability); assay type: cell-based; conditions: Homo sapiens, DU-4475; Table 4; Rb negative; treatment 144 Hr with medium change at 72 Hr; Cell Titer-Glo or resazurin
Procedure, shortened: (§1)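 Cells seeded day 1, then exposed on day 2 to 7–9 compound concentrations (e.g. 1.1 nM–10 μM); BT-549 for 24 h, MCF-7 and DU4475 for 144 h with medium change at 72 h. Viability by CellTiter-Glo or resazurin; IC50 from variable-slope sigmoidal fit.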

[2] = system: MCF-7 breast adenocarcinoma cells; test: as above; assay type: cell-based; conditions: Homo sapiens, MCF7, Table 4; Rb positive; treatment 144 Hr with medium change at 72 Hr; Cell Titer-Glo or resazurin
Procedure, shortened: as §1

T1 sequence (P11802 whole entry): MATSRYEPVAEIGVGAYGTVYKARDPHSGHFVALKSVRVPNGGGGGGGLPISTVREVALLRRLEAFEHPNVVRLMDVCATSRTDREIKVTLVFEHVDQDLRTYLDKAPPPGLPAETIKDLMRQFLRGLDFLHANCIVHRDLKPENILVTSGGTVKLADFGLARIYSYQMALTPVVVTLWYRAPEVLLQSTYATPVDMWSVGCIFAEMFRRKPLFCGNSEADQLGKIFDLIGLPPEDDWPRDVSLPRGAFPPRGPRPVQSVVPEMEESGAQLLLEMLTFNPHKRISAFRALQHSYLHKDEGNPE
T1 sequence (P24385 whole entry partner): as the sequence (P24385 whole entry partner) above

SMILES | IC50 (CDK4) [nM] | IC50 (CDK6) [nM] | IC50 (CDK1 (cyclin B); read-out: CDK1/B IC50) [nM] | IC50 (CDK2 (cyclin A)) [nM] | IC50 (FMS kinase) [nM] | IC50 (PI3Kδ kinase) [nM] | IC50 [1] [nM] | IC50 [2] [nM] | IC50 (CDK1 (cyclin B)) [nM]
CS(=O)(=O)N1CCC[C@@H](Nc2ncc3cc(C#N)c(=O)n(C4CCCC4)c3n2)C1 [Compound No. 365, (R)-8-cyclopentyl-2-((1-(methylsulfonyl)piperidin-3-yl)amino)-7-oxo-7,8-dihydropyrido[2,3-d]pyrimidine-6-carbonitrile] | 167 | > 200 | > 5000 | 1240 | 311 | 1710 | 5630 | 1260 | 
N#Cc1cc2cnc(Nc3ccc4c(c3)C(=O)NCC4)nc2n(C2CCCC2)c1=O [Compound No. 6, 8-cyclopentyl-7-oxo-2-((1-oxo-1,2,3,4-tetrahydroisoquinolin-7-yl)amino)-7,8-dihydropyrido[2,3-d]pyrimidine-6-carbonitrile] | 8 | 2 | > 4650 | 873 | < 1 | 163 |  | 1160 | 
CCS(=O)(=O)N1CCC(Nc2ncc3cc(C#N)c(=O)n(C4CCCC4)c3n2)CC1 [Compound No. 357, 8-cyclopentyl-2-((1-(ethylsulfonyl)piperidin-4-yl)amino)-7-oxo-7,8-dihydropyrido[2,3-d]pyrimidine-6-carbonitrile] | 2.7 | 5.8 |  | 11 | 490 | > 25300 | 1300 | 190 | 230
CN(C)S(=O)(=O)N1CCC(Nc2ncc3cc(C#N)c(=O)n(C4CCCC4)c3n2)CC1 [Compound No. 366, 4-((6-cyano-8-cyclopentyl-7-oxo-7,8-dihydropyrido[2,3-d]pyrimidin-2-yl)amino)-N,N-dimethylpiperidine-1-sulfonamide] | 22 | 4.5 |  | 151 | 925 | > 48200 | 2410 | 320 | 2930
CN(C)C1CCc2ccc(Nc3ncc4cc(C#N)c(=O)n(C5CCCC5)c4n3)cc2C1 (stereo not shown) [Compound No. 48, 8-cyclopentyl-2-((7-(dimethylamino)-5,6,7,8-tetrahydronaphthalen-2-yl)amino)-7-oxo-7,8-dihydropyrido[2,3-d]pyrimidine-6-carbonitrile] | 14 | 6 | 488 | 140 | 3 | 945 |  | 945 | 
N#Cc1cc2cnc(NC3CCN(S(=O)(=O)CC(F)(F)F)CC3)nc2n(C2CCCC2)c1=O [Compound No. 358, 8-cyclopentyl-7-oxo-2-((1-((2,2,2-trifluoroethyl)sulfonyl)piperidin-4-yl)amino)-7,8-dihydropyrido[2,3-d]pyrimidine-6-carbonitrile] | 4.4 | 6.6 |  | 119 | 1130 | > 44000 | 12800 | 2800 | 1380
N#Cc1cc2cnc(Nc3ccc4c(c3)CCNC4)nc2n(C2CCCC2O)c1=O (stereo not shown) [Compound No. 346, 8-(2-hydroxycyclopentyl)-7-oxo-2-((1,2,3,4-tetrahydroisoquinolin-6-yl)amino)-7,8-dihydropyrido[2,3-d]pyrimidine-6-carbonitrile] | > 200 | 57 | > 5000 | 177 | 18 | 10200 | 10100 | > 30000 | 
CS(=O)(=O)N1CCC(Nc2ncc3cc(C#N)c(=O)n(C4CCCCC4)c3n2)CC1 [Compound No. 367, 8-cyclohexyl-2-((1-(methylsulfonyl)piperidin-4-yl)amino)-7-oxo-7,8-dihydropyrido [2,3-d] pyrimidine-6-carbonitrile] | 55 | 7.4 |  | 308 | 102 | 539 | 5160 | 640 | 2920
CS(=O)(=O)N1CCC(Nc2ncc3cc(C#N)c(=O)n(C4CCC4)c3n2)CC1 [Compound No. 368, 8-cyclobutyl-2-((1-(methylsulfonyl)piperidin-4-yl)amino)-7-oxo-7,8-dihydropyrido [2,3-d] pyrimidine-6-carbonitrile] | 34 | 3.4 |  | 28 |  | 1980 | 1390 | 405 | 331
N#Cc1cc2ccc(Nc3ccc(N4CCNCC4)cc3)nc2n(C2CCCC2)c1=O [Compound No. 94, 1-cyclopentyl-2-oxo-7-((4-(piperazin-1-yl)phenyl)amino)-1,2-dihydro-1,8-naphthyridine-3-carbonitrile] | > 200 | > 200 | > 5000 | > 5000 |  | > 50000 | 485 | 1940 | 
CS(=O)(=O)N1CCC[C@H](Nc2ncc3cc(C#N)c(=O)n(C4CCCC4)c3n2)C1 [Compound No. 364, (S)-8-cyclopentyl-2-((1-(methylsulfonyl)piperidin-3-yl)amino)-7-oxo-7,8-dihydropyrido[2,3-d]pyrimidine-6-carbonitrile] | > 200 | > 200 | > 5000 | > 5000 | 64 | 825 | 5660 | 3330 | 
N#Cc1cc2cnc(Nc3ccc4c(c3)CCNC4)nc2n(C2CCC(F)(F)C2)c1=O (stereo not shown) [Compound No. 344, 8-(3,3-difluorocyclopentyl)-7-oxo-2-((1,2,3,4-tetrahydroisoquinolin-6-yl)amino)-7,8-dihydropyrido[2,3-d]pyrimidine-6-carbonitrile] | 77.5 | 64 | > 4670 | 201 | 3.5 | 1630 | 960 | 435 | 
N#Cc1cc2cnc(Nc3ccc4c(c3)CCNC4)nc2n(C2COCC2O)c1=O (stereo not shown) [Compound No. 101, 8-(4-hydroxytetrahydrofuran-3-yl)-7-oxo-2-((1,2,3,4-tetrahydroisoquinolin-6-yl)amino)-7,8-dihydropyrido[2,3-d]pyrimidine-6-carbonitrile] | > 200 | > 200 | > 5000 | 1740 | 55 | 7770 | > 30000 | > 30000 | 
N#Cc1cc2cnc(NC3CCN(S(=O)(=O)C4CC4)CC3)nc2n(C2CCCC2)c1=O [Compound No. 356, 8-cyclopentyl-2-((1-(cyclopropylsulfonyl)piperidin-4-yl)amino)-7-oxo-7,8-dihydropyrido[2,3-d]pyrimidine-6-carbonitrile] | 2 | 4.5 |  | 5.5 | 55 | 19900 | 1140 | 175 | 55
N#Cc1cc2ccc(Nc3ccc4c(c3)CNCC4)nc2n(C2CCCC2)c1=O [Compound No. 326, 1-cyclopentyl-2-oxo-7-((1,2,3,4-tetrahydroisoquinolin-7-yl)amino)-1,2-dihydro-1,8-naphthyridine-3-carbonitrile] | > 200 | > 200 | > 5000 | > 5000 |  | > 50000 | 4240 | 3520 | 
